According to patent US10066204B2, “Chemically labile peptide-presenting surfaces for cellular self-assembly” (Wisconsin Alumni Research Foundation, priority 2013, dated 2018):
Read-outs that look alike come from different tables or passages of the source.

Assays:
[1] = system: hESC (H1); settings: for cell adhesion of the hESC monolayer by adhesion ligand on the array spot: FIG. 2B/2C
Description: Gold slides were placed into a 150 mm glass Petri dish, covered with EtOH and sonicated for ˜1 minute using an ultrasonic bath (Bransonic 1510, Branson, Danbury, Conn.). Sonicated gold chips were then rinsed with EtOH and blown dry with N2. […] For spot shape, elastomeric stencils with arrays in the shape of circles, ovals, and oval cross were placed on a bare gold surface to form an array of wells having these shapes on the gold substrate. Wells were then filled with 1 mM ethanolic alkanethiolate solution and incubated for 10 minutes in a chamber containing a laboratory wipe soaked in ethanol to prevent evaporation during local SAM formation. Alkanethiolate solutions were then aspirated and wells were rinsed with DIUF H2O. Carboxylate groups were then converted to active ester groups by adding a solution of 100 mM NHS and 250 mM EDC in DIUF H2O pH 5.5 to wells and incubated for 10 minutes. After an additional rinse with DIUF H2O, 300 μM solutions of […] (SEQ ID NO: 5; commercially available from GenScript, Piscataway, N.J.) or […] (SEQ ID NO: 6; commercially available from GenScript, Piscataway, N.J.) in PBS and pH 7.4 were added to each well and incubated for 1 hour in a humidity controlled chamber to covalently couple peptides to each array spot. After a final rinse in DIUF H2O, regions surrounding array spots were backfilled with HS—C11-EG3-OH. This was accomplished by submerging the gold substrate and attached elastomeric stencil in an aqueous 0.1 mM HS—C11-EG3-OH solution (pH 2.0), removing the stencil, and incubating for 10 minutes. Following backfilling, the array was rinsed with 0.1 wt % SDS in DIUF H2O, DIUF H2O, and EtOH and then dried under a stream of N2. Arrays were stored in sterile DIUF H2O at 4° C. and used within 24 hours.
Pluripotent stem cells were seeded on arrays at a density of 10^5 cells/cm^2. […] Colonies that spontaneously detached from SAM spots were also harvested. Colonies were analyzed for Oct 3/4 and Nanog expression by immunofluorescence using DAPI to stain nuclei.
The concentration of the integrin adhesion peptides […] (SEQ ID NO: 1) and cyclic RGD (SEQ ID NO: 4) on the array spot was varied between 2% and 10% by the fraction of COOH groups functionalized with peptides present at the spot among background OH functionalities.
After initial attachment of the cells to the glycosaminoglycan binding peptide […]
Specifically, a 1:1 functionalization with cyclic RGD (SEQ ID NO: 4) and […]

[2] = system: hESC monolayers (H1 hESC line); settings: for effect of soluble peptide on kinetics of aggregate assembly: 0.1 mM soluble peptide in culture media; for change in hESC colony projected area (indicative of aggregate self-assembly): both 5% COOH and 0.5% COOH SAMs
Description: Gold slides were placed into a 150 mm glass Petri dish, covered with EtOH and sonicated for 2 minutes using an ultrasonic bath (Bransonic 1510, Branson, Danbury, Conn.). Sonicated gold chips were then rinsed with EtOH and blown dry with N2. […] Wells were then filled with 1 mM ethanolic alkanethiolate solution and incubated for approximately 10 minutes at room temperature in a chamber containing a laboratory wipe soaked in ethanol to prevent evaporation during local SAM formation. Alkanethiolate solutions were then aspirated and wells were rinsed with DIUF H2O. Carboxylate groups were then converted to active ester groups by adding a solution of 100 mM NHS and 250 mM EDC (in pH 5.5 DIUF H2O) to wells and incubating for 15 minutes. After an additional rinse with DIUF H2O, 300 μM solutions of peptide(s) in pH 7.4 PBS were added to each well and incubated for 1 hour in a humidity-controlled chamber at room temperature to covalently couple peptides to each array spot. After a final rinse in DIUF H2O, regions surrounding array spots were backfilled with HS—C11-EG3-OH. This was accomplished by submerging the gold substrate and attached elastomeric stencil in an aqueous 0.1 mM HS—C11-EG3-OH solution (pH 2.0), removing the stencil, and incubating for 10 minutes. Following backfilling, the array was rinsed with 0.1 wt % SDS in DIUF H2O, DIUF H2O, and EtOH, and then dried under a stream of N2. Arrays were stored away from light in diH2O at room temperature and used within 24 hours.
Pluripotent stem cells (H1 hESC line) were seeded on arrays at a density of approximately 2×10^5 cells/cm^2 to achieve confluent monolayers within 4 hours.
(§1) Time lapse images were analyzed using edge detection software to track projected area of colonies with respect to initial colony area over time. A t50 of self-assembly was defined as the length of time required for a given patterned cell monolayer to reach 50% of its original 2D projected area, as assessed by automated edge detection. This metric is used throughout this specification to describe differences in the kinetics of aggregate self-assembly between different cell types and in different conditions.

[3] = system: hMSC monolayers
Description: as §1
hMSCs or hDFs were seeded on arrays at a density of ˜1×10^5 cells/cm^2 to achieve confluent monolayers within 4 hours. Cells were cultured on SAMs in αMEM media containing 10% fetal bovine serum (FBS) for 2 hours after seeding. At this time, SAM arrays were rinsed in basal medium to remove nonspecifically adhered cells and replaced in fresh αMEM+10% FBS.
In this Example, the beginning of self-assembly is characterized by the time point at which an evident decrease in projected area of the cell monolayer first occurs. The completion of self-assembly is considered the time point at which no further decreases in monolayer projected area occur, and is marked by the appearance of a plateau in graphical traces of monolayer projected area (see FIG. 28A).

[4] = system: hESCs (H1 line); settings: EBs from 5% SAMs, 24 hours post-assembly
[5] = system: hESC monolayers; settings: 5% SAMs
Description: Colonies were analyzed for Oct4 and Nanog expression by immunofluorescence using DAPI to stain nuclei.
Self-assembled EBs formed from largely pluripotent 2D hESC populations. hESC monolayers cultured on array spots were stained for pluripotency markers Oct4 and Nanog, as well as DAPI to identify cell nuclei. […] Quantification of positive staining for Oct4 and Nanog, relative to number of cells as quantified by DAPI staining, is shown in FIG. 25B. […] Nanog was expressed by 89% and 93% of hESCs in monolayers at 4 hours and 24 hours, respectively.

[6] = system: hESC monolayers; settings: 5% SAMs, circular spots of 1.2 mm diameter
Description: Polymer stencils containing arrays of wells were created using soft lithography. Master molds containing arrays of 1.2 mm, 1.8 mm, and 2.4 mm diameter circular posts or oval-shaped or quatrefoil-shaped posts were fabricated from SU-8 (Microchem, Newton, Mass.) spin-coated silicon wafers using conventional photolithography techniques. Polydimethylsiloxane (PDMS) (Sylgard 184, Dow Corning, Midland, Mich.) was prepared by mixing a 10:1 ratio of base:curing agent (w/w) followed by degassing for approximately 45 minutes. The degassed mixture was cast over the mold and cured for 6 hours at 80° C. Following curing, PDMS stencils were removed from molds and cleaned in hexane using overnight Soxhlet extraction.

With CGKKQRFRHRNRKG the “cell adhesion of the hESC monolayer by adhesion ligand on the array spot” value (“cell adhesion of the hESC monolayer” below) [1] was “significantly less cell attachment” and the “time until cells detached after initial attachment” value ([1]; array spots presenting the peptide) was no more than 12 h.
GWGGRGDSP was tested, and the “cell adhesion of the hESC monolayer” value [1] was “best cell adhesion”.
In the case of KRTGQYKL, the “cell adhesion of the hESC monolayer” value [1] is reported as “no significant adhesion”.
With GWGGRGESP [reference compound] the “cell adhesion of the hESC monolayer” value [1] was “No significant differences”.
For cyclo(RADFDK) [reference compound], the “effect of soluble peptide on kinetics of aggregate assembly” value ([2]; hESC on 5% cyclo(RGDFDC) SAMs) was “no evident effect”.
In the case of cyclo(RGDFDK) [reference compound], the “cellular self-assembly behavior of hESC monolayers” value ([2]; 5% COOH SAMs) is reported as “no cellular self-assembly behavior”, the “change in hESC colony projected area (indicative of aggregate self-assembly)” value [2] is reported as “no such decreases” and the “detachment of hESC monolayers” value ([2]; over 96 hours) is reported as “no observable detachment”.
For cyclo(RGDFDC), the “beginning of self-assembly after initial seeding” value [3] was no more than 24 h, the “completion of self-assembly after initial seeding” value [3] was no more than 36 h and the “t50 of self-assembly of hMSCs” value [3] was “approximately 30 hours”. The “Nanog+ cells dissociated from EBs” value [4] was “approximately 91%”, the “Oct4+ cells dissociated from EBs” value [4] was “approximately 99%” and the “hESC cell adhesion as a function of adhesion ligand density” value ([1]; 2% COOH fraction compared to 5% COOH, 4 to 48 hours in culture) was “significantly lower cell adhesion”. For the same substance, the “hESC cell adhesion as a function of adhesion ligand density” value ([1]; 10% COOH fraction compared to 5% COOH) was “did not lead to an improved attachment”, the “cell adhesion of the hESC monolayer” value [1] was “best cell adhesion” and the “hESCs in monolayers expressing Nanog” value ([5]; 4 hours after seeding) was 89%. The “hESCs in monolayers expressing Oct4” value ([5]; 4 hours after seeding) was “greater than 97%”, the “hESCs in monolayers expressing Nanog” value ([5]; 24 hours after seeding) was 93% and the “hESCs in monolayers expressing Oct4” value ([5]; 24 hours after seeding) was 93%. The “time to form self-assembled EBs” value [6] was no more than 72 h, the “effect of soluble peptide on kinetics of aggregate assembly” value ([2]; hESC on 5% cyclo(RGDFDC) SAMs) was “most rapid aggregate assembly” and the “time of forming three-dimensional cellular aggregates floating in suspension” value ([2]; 5% COOH SAMs) was 72 to 96 h. The “effect of soluble peptide on kinetics of aggregate assembly versus control” value ([2]; […] soluble peptide in culture media, hESC on 5% cyclo(RGDFDC) SAMs) was “faster aggregate assembly”, the “change in hESC colony projected area (indicative of aggregate self-assembly)” value [2] was “evident decreases” and the t50 of self-assembly ([2]; hESC, 0.01% peptide SAMs) was “approximately 14 hours”. The t50 of self-assembly ([2]; hESC, 0.5% COOH SAMs) was “approximately 22 hours”, the “beginning of the self-assembly process after initial seeding” value ([2]; hESC, 5% COOH SAMs) was 40 to 48 h and the “completion of the self-assembly process after initial seeding” value ([2]; hESC, 5% SAMs) was no more than 72 h. The t50 of self-assembly ([2]; hESC, 5% peptide SAMs) was “approximately 45 hours”.
